For data set [1], the system named is OVCAR3. The experiment in a line: Flow cytometry analysis of cell labeling (azido labeling efficiency). It is filed as cell-based. As to conditions: OVCAR3 (ovarian), azido compound 25 μM, 48 h. On the procedure: (§1) Cells (2.0×10^6 cells/mL, 2 mL) were seeded in a 6-well culture plate and attached at 37° C. overnight. After washed thrice with PBS, the cells were incubated with an azido compound (25 μM) at 37° C. for 48 h. After washed thrice with PBS, the cells were incubated with DBCO-biotin (50 μM) in 500 μL serum free DMEM at 37° C. for 1 h. The cells were washed thrice with PBS and then incubated with streptavidin-Cy5 (5 μg/mL) in 500 μL serum free DMEM at 37° C. for 1 h. The cells were washed thrice with PBS, followed by addition of 300 μL 1×trypsin/EDTA for digestion. The lifted cells were transferred to a 1.5 mL EP tube, centrifuge at 1,000 rpm for 3 min, and washed with PBS once. Finally, 500 μL PBS containing 4% PFA was added to the cell pellet to fix the cells. The cell suspension was transferred to a flow tube and mixed with 10 μL of a PI working solution (50 μg/mL) at room temperature for 30 min before being subjected to flow cytometry.
(§2) Flow cytometry was used to characterize the labeling efficiency of a compound provided herein. After cells were labeled with an azido group, DBCO-biotin was added to specifically react with the azido group. Avidin-Cy5 was added bind to the cell surface biotin for a flow cytometry analysis. Dead cells were stained with PI and excluded from the analysis. Results were presented as the mean fluorescence of live cells, compared with PBS as a negative control and Ac4ManNAz (AAM) as a positive control, Ac4ManNAz (AAM, CAS: 361154-30-5).
(In flow cytometry, cells or beads pass a laser one at a time.)

Data set [2] has as its system MDA-MB-231. The description is as above. In kind it is cell-based. As to conditions: MDA-MB-231 (breast), azido compound 25 μM, 48 h. On the procedure:
as §1, §2

Data set [3] deals with A549 cells. The data set is described as above. It is filed as cell-based. Conditions: Homo sapiens; A549 cells (lung); azido compound 25 μM, 48 h; mean fluorescence of live cells compared with PBS negative control. On the procedure: as §1, §2
The nature of data set [4]: Compound stability in a biological matrix (mouse plasma). It is filed as in vitro ADME. As to conditions: 10 μg/mL, 37° C., LC-MS/MS. On the procedure: (§3) A compound was dissolved in DMSO as a 1 mg/mL stock solution. An ACN solution of the compound at 100 μg/mL was prepared from the stock solution, 10 μL of which was added to a biological matrix (90 μL) to the final concentration of 10 μg/mL for the compound. The mixtures of the compound in a biological matrix were incubated at 37° C. for 0, 0.5, 1, or 4 h. At each time point, ACN (900 μL) was added to a mixture. After the mixture was centrifuged at 15,000 rpm for 5 min, the supernatant was mixed with the same volume of H2O (1% TFA) and then analyzed by LC-MS/MS. The results are summarized in Table 3, wherein Cbz-AAM is (2R,3S,4R,5S)-6-((4-((S)-6-acetamido-2-(((benzyloxy)carbonyl)amino)hexan-amido)phenyl)(phenyl)methoxy)-2-(acetoxymethyl)-5-(2-azidoacetamido)tetrahydro-2H-pyran-3,4-diyl diacetate.

The nature of data set [5]: Compound stability in a biological matrix (human plasma). In kind it is in vitro ADME. As to conditions: 10 μg/mL, 37° C., LC-MS/MS. On the procedure:
as §3

Where [6] appears, read: mean fluorescence of live cells compared with Ac4ManNAz (AAM) positive control.
Setting [7] is: mean fluorescence of live cells compared with PBS negative control.

As to `CC(=O)NCCCC[C@H](NC(=O)OCc1ccccc1)C(=O)Nc1ccc(C(OC2OC(COC(C)=O)C(OC(C)=O)C(OC(C)=O)C2NC(=O)CN=[N+]=[N-])c2ccnn2C)cc1` (stereo partly drawn) [Compound A8, 1-O-(1-(2-methylpyrazol-3-yl)-1-(4-(6-acetamido-2(S)-(benzyloxycarbonyl-amino)hexanamido)phenyl)methyl)-2-(2-azidoacetylamino)-2-deoxy-3,4,6-tri-O-acetyl-D-mannopyranoside], the “Labeling Efficiency AAM %” value in data set [1] (setting [6]) was 24%. Further, in data set [1] (setting [7]), the “Labeling Efficiency PBS %” value is given as 132%. Further, the “Labeling Efficiency AAM %” value in data set [2] (setting [6]) was found to be 31%. Further, in data set [2] (setting [7]), the “Labeling Efficiency PBS %” value turned out to be 209%. In data set [3], the activity at 25 µM turned out to be 196%. In data set [4], the “Compound Remaining (%) Mouse 1 h” value turned out to be 76% and the “Compound Remaining (%) Mouse 4 h” value was 23%. For the same compound, in data set [5], the “Compound Remaining (%) Human 1 h” value was 61% and the “Compound Remaining (%) Human 4 h” value is reported as 16%.
In the case of `CC(=O)NCCCC[C@H](NC(=O)OCc1ccccc1)C(=O)Nc1ccc(C(OC2OC(COC(C)=O)C(OC(C)=O)C(OC(C)=O)C2NC(=O)CN=[N+]=[N-])c2cnc[nH]2)cc1` (stereo partly drawn) [Compound A1, 1-O-(1-(imidazol-4-yl)-1-(4-(6-acetamido-2(S)-(benzyloxycarbonylamino)-hexanamido)phenyl)methyl)-2-(2-azidoacetylamino)-2-deoxy-3,4,6-tri-O-acetyl-D-mannopyranoside], the activity at 25 µM in data set [3] was found to be 103%. In addition, in data set [4], the “Compound Remaining (%) Mouse 1 h” value was 91% and the “Compound Remaining (%) Mouse 4 h” value amounted to 72%. Besides, in data set [5], the “Compound Remaining (%) Human 1 h” value is reported as 94% and the “Compound Remaining (%) Human 4 h” value is reported as 70%.
Regarding `CC(=O)NCCCC[C@H](NC(C)=O)C(=O)Nc1ccc(C(OC2OC(COC(C)=O)C(OC(C)=O)C(OC(C)=O)C2NC(=O)CN=[N+]=[N-])c2cncs2)cc1` (stereo partly drawn) [Compound A16, 1-O-(1-(Thiazol-5-yl)-1-(4-(2(S),6-diacetamidohexanamido)phenyl)methyl)-2-(2-azidoacetylamino)-2-deoxy-3,4,6-tri-O-acetyl-D-mannopyranoside], the activity at 25 µM in data set [3] is 136%. For the same compound, in data set [4], the “Compound Remaining (%) Mouse 1 h” value stood at 93% and the “Compound Remaining (%) Mouse 4 h” value was found to be 73%. In addition, in data set [5], the “Compound Remaining (%) Human 1 h” value is on record as 97% and the “Compound Remaining (%) Human 4 h” value came to 86%.
For `CC(=O)NCCCC[C@H](NC(C)=O)C(=O)Nc1ccc(C(OC2OC(COC(=O)Cc3cccnc3)C(OC(C)=O)C(OC(C)=O)C2NC(=O)CN=[N+]=[N-])c2ccnn2C)cc1` (stereo partly drawn) [Compound A17, 1-O-(1-(2-Methylpyrazol-3-yl)-1-(4-(2(S),6-diacetamidohexanamido)phenyl)-methyl)-2-(2-azidoacetylamino)-2-deoxy-3,4-di-O-acetyl-6-O-(pyridin-3-ylacetyl)-D-mannopyranoside] the same measures were 161%, 77%, 28%, 63% and 10%.
For `CC(=O)NCCCC[C@H](NC(=O)OCc1ccccc1)C(=O)Nc1ccc(C(OC2OC(COC(=O)C3CCN(C)CC3)C(OC(C)=O)C(OC(C)=O)C2NC(=O)CN=[N+]=[N-])c2ccnn2C)cc1` (stereo partly drawn) [Compound A10, 1-O-(1-(2-Methylpyrazol-3-yl)-1-(4-(6-acetamido-2(S)-(benzyloxycarbonyl-amino)hexanamido)phenyl)methyl)-2-(2-azidoacetylamino)-2-deoxy-3,4-di-O-acetyl-6-O-(1-methylpiperidin-4-yl)carbonyl-D-mannopyranoside] the same measures were 166%, 81%, 21%, 62% and 5%.
On to `CC(=O)NCCCC[C@H](NC(=O)OCc1ccccc1)C(=O)Nc1ccc(C(OC2OC(COC(C)=O)C(OC(C)=O)C(OC(C)=O)C2NC(=O)CN=[N+]=[N-])c2cn(C)cn2)cc1` (stereo partly drawn) [Compound A2, 1-O-(1-(1-methylimidazol-4-yl)-1-(4-(6-acetamido-2(S)-(benzyloxycarbonylamino)-hexanamido)phenyl)methyl)-2-(2-azidoacetylamino)-2-deoxy-3,4,6-tri-O-acetyl-D-mannopyranoside], for which the activity at 25 µM in data set [3] amounted to 250%. In data set [4], the “Compound Remaining (%) Mouse 1 h” value turned out to be 98% and the “Compound Remaining (%) Mouse 4 h” value is reported as 87%. Further, in data set [5], the “Compound Remaining (%) Human 1 h” value is on record as 100% and the “Compound Remaining (%) Human 4 h” value amounted to 90%.
On the same counts, the results for `CC(=O)NCCCC[C@H](NC(=O)OCc1ccccc1)C(=O)Nc1ccc(C(OC2OC(COC(=O)Cc3cccnc3)C(OC(C)=O)C(OC(C)=O)C2NC(=O)CN=[N+]=[N-])c2ccnn2C)cc1` (stereo partly drawn) [Compound A12, 1-O-(1-(2-Methylpyrazol-3-yl)-1-(4-(6-acetamido-2(S)-(benzyloxycarbonyl-amino)hexanamido)phenyl)methyl)-2-(2-azidoacetylamino)-2-deoxy-3,4-di-O-acetyl-6-O-(pyridin-3-ylacetyl)-D-mannopyranoside] are 165%, 82%, 27%, 64% and 8%.

The values are drawn from patent US20260200964A1, “MONOSACCARIDES, PHARMACEUTICAL COMPOSITIONS, AND DIAGNOSTIC AND THERAPEUTIC APPLICATIONS” (Surio Therapeutics Co., LTD., priority 2022, published 2026).
